In brackets after ≈: the same amount, converted by molar mass.
Legend:
Escherichia coli [1] = assay: Minimum inhibitory activity against Escherichia coli GC 4559; format: functional
Escherichia coli [2] = assay: Minimum inhibitory activity against Escherichia coli GC 4560; format: functional
Enterococcus faecalis [3] = assay: Minimum inhibitory activity against Enterococcus faecalis GC 2242 (VRE); format: functional
Enterococcus faecalis [4] = assay: Minimum inhibitory activity against Enterococcus faecalis GC 4555 (ATCC); format: functional
[5] = Minimum inhibitory activity against MSCNS GC 646; format: functional
[6] = Minimum inhibitory activity against Streptococcus pneumoniae GC1894 (PRSP); format: functional
[7] = Minimum inhibitory activity in presence of 4% bovine serum albumin against Streptococcus pneumoniae GC1894 (PRSP); format: functional
Staphylococcus aureus [8] = assay: Minimum inhibitory activity against Staphylococcus aureus GC 1131 (MRSA); format: functional
Staphylococcus aureus [9] = assay: Minimum inhibitory activity against Staphylococcus aureus GC 2216 (ATCC); format: functional
Staphylococcus aureus [10] = assay: Minimum inhibitory activity against Staphylococcus aureus GC 4543 (MSSA); format: functional
[11] = target: T1, UDP-N-acetylmuramate--L-alanine ligase (Staphylococcus aureus, UniProt O31211); assay: In vitro inhibitory activity against Staphylococcus aureus UDP-N-acetylmuramoyl-L-alanine synthetase
T1 sequence (O31211 whole entry): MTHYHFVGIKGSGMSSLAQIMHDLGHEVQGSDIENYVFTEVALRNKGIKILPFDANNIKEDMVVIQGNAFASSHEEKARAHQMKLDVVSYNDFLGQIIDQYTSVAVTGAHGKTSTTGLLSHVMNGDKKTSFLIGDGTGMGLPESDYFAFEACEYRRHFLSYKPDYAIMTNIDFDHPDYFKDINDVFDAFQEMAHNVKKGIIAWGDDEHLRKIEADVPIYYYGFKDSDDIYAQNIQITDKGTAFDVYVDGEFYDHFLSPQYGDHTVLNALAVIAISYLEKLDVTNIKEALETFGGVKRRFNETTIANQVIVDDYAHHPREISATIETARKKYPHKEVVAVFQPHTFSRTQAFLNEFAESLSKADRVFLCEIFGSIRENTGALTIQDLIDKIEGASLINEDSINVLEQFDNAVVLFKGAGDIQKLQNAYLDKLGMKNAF

[12] = target: T2, UDP-N-acetylenolpyruvoylglucosamine reductase (Staphylococcus aureus, UniProt P61431); assay: In vitro inhibitory activity against Staphylococcus aureus UDP-N-acetylmuramate dehydrogenase
T2 sequence (P61431 whole entry): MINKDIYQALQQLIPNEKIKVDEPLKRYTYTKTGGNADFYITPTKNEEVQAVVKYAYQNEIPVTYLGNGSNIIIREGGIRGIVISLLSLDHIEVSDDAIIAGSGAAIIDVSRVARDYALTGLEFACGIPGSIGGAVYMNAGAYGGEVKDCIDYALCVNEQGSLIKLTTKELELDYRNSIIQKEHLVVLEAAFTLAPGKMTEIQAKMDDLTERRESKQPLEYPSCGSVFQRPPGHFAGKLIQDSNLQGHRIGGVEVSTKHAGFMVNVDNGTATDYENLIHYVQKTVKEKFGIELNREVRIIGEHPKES

[13] = target: T3, UDP-N-acetylmuramoylalanine--D-glutamate ligase (Staphylococcus aureus, UniProt P0A091); assay: In vitro inhibitory activity against Staphylococcus aureus UDP-N-acetylmuramoyl-L-alanyl-D-glutamate synthetase
T3 sequence (P0A091 whole entry): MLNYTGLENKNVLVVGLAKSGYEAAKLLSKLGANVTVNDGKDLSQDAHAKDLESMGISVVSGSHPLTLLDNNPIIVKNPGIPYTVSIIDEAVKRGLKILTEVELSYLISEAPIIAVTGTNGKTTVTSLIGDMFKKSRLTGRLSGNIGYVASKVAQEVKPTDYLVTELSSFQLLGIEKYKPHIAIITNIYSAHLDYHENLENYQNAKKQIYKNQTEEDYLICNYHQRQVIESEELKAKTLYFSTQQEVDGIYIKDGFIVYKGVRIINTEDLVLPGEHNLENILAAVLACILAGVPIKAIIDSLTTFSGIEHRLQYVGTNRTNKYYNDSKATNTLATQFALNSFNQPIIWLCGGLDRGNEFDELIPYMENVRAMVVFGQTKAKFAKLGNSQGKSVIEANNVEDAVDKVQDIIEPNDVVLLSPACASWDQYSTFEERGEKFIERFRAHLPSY

Bacteria = assay: Minimum inhibitory activity against gram negative bacteria; format: functional
[14] = Partition coefficient (logP); format: physicochemical; details: octanol/water

Structure (SMILES)	MIC (Escherichia coli [1])	MIC (Escherichia coli [2])	MIC (Enterococcus faecalis [3])	MIC (Enterococcus faecalis [4])	MIC ([5]; Staphylococcus)	MIC [6]	MIC [7]	MIC (Staphylococcus aureus [8])	MIC (Staphylococcus aureus [9])	MIC (Staphylococcus aureus [10])	IC50 [11]	IC50 [12]	IC50 [13]	MIC (Bacteria)	logP [14]	MIC [5]
Oc1c2c(nn1-c1ccc(F)cc1)CCS2	> 128 mg/L	32 mg/L (≈ 135 µM)	8 mg/L (≈ 33.9 µM)	8 mg/L (≈ 33.9 µM)	0.25 mg/L (≈ 1.06 µM)	2 mg/L (≈ 8.46 µM)	> 128 mg/L	2 mg/L (≈ 8.46 µM)	2 mg/L (≈ 8.46 µM)	4 mg/L (≈ 16.9 µM)	> 106 µM	50.8 µM	> 106 µM			
Oc1c2c(nn1-c1ccccc1C(F)(F)F)CCS2	> 128 mg/L	128 mg/L (≈ 447 µM)	16 mg/L (≈ 55.9 µM)	32 mg/L (≈ 112 µM)	64 mg/L (≈ 224 µM)	8 mg/L (≈ 27.9 µM)	> 128 mg/L	32 mg/L (≈ 112 µM)	32 mg/L (≈ 112 µM)	32 mg/L (≈ 112 µM)	> 87.3 µM	> 87.3 µM	> 87.3 µM			
Oc1c2c(nn1-c1ccc(C(F)(F)F)cc1)CCS2	> 128 mg/L	128 mg/L (≈ 447 µM)	8 mg/L (≈ 27.9 µM)	16 mg/L (≈ 55.9 µM)	4 mg/L (≈ 14 µM)	0.5 mg/L (≈ 1.75 µM)	> 128 mg/L	8 mg/L (≈ 27.9 µM)	2 mg/L (≈ 6.99 µM)	1 mg/L (≈ 3.49 µM)	> 87.3 µM	38.4 µM	43 µM			
Oc1c2c(nn1-c1ccc(Br)cc1)CCS2	> 128 mg/L	> 128 mg/L	32 mg/L (≈ 108 µM)	16 mg/L (≈ 53.8 µM)	1 mg/L (≈ 3.36 µM)	1 mg/L (≈ 3.36 µM)	> 128 mg/L	16 mg/L (≈ 53.8 µM)	2 mg/L (≈ 6.73 µM)	4 mg/L (≈ 13.5 µM)	38.4 µM	12.1 µM	30.3 µM			
CC1Cc2nn(-c3ccc(Cl)cc3)c(O)c2S1 (configuration not stated)	> 128 mg/L	> 128 mg/L	2 mg/L (≈ 7.5 µM)	32 mg/L (≈ 120 µM)	16 mg/L (≈ 60 µM)	4 mg/L (≈ 15 µM)	> 128 mg/L	16 mg/L (≈ 60 µM)	32 mg/L (≈ 120 µM)	16 mg/L (≈ 60 µM)	> 93.7 µM	> 93.7 µM	64.1 µM			
O=[N+]([O-])c1ccc(-n2nc3c(c2O)CSCC3)cc1												> 90.2 µM		> 128 mg/L		
CN[C@H](CC(C)C)C(=O)N[C@H]1C(=O)N[C@@H](CC(N)=O)C(=O)N[C@H]2C(=O)N[C@H]3C(=O)N[C@H](C(=O)N[C@H](C(=O)O)c4cc(O)cc(O)c4-c4cc3ccc4O)[C@H](O)c3ccc(c(Cl)c3)Oc3cc2cc(c3O[C@@H]2O[C@H](CO)[C@@H](O)[C@H](O)[C@H]2O[C@H]2C[C@](C)(N)[C@H](O)[C@H](C)O2)Oc2ccc(cc2Cl)[C@H]1O [VANCOMYCIN]	> 128 mg/L	0.25 mg/L (≈ 0.173 µM)	> 128 mg/L	2 mg/L (≈ 1.38 µM)		< 0.12 mg/L										

Now from value to compound:

MIC (Escherichia coli [1])	MIC (Escherichia coli [2])	MIC (Enterococcus faecalis [3])	MIC (Enterococcus faecalis [4])	MIC ([5]; Staphylococcus)	MIC [6]	MIC [7]	MIC (Staphylococcus aureus [8])	MIC (Staphylococcus aureus [9])	MIC (Staphylococcus aureus [10])	IC50 [11]	IC50 [12]	IC50 [13]	MIC (Bacteria)	logP [14]	MIC [5]	Structure (SMILES)
> 128 mg/L	> 128 mg/L	> 128 mg/L	> 128 mg/L	> 128 mg/L	64 mg/L (≈ 233 µM)	> 128 mg/L	> 128 mg/L	> 128 mg/L	128 mg/L (≈ 466 µM)	> 91.1 µM	> 91.1 µM	> 91.1 µM				CC(C)(C)c1ccc(-n2nc3c(c2O)SCC3)cc1
											> 88.3 µM		> 128 mg/L			Oc1c2c(nn1-c1ccc(Cl)c(Cl)c1)CCCC2
> 128 mg/L	128 mg/L (≈ 446 µM)	64 mg/L (≈ 223 µM)	128 mg/L (≈ 446 µM)	16 mg/L (≈ 55.7 µM)	4 mg/L (≈ 13.9 µM)	> 128 mg/L	32 mg/L (≈ 111 µM)	8 mg/L (≈ 27.9 µM)	8 mg/L (≈ 27.9 µM)	24.4 µM	38.3 µM	48.8 µM		3.62		Oc1c2c(nn1-c1ccc(Cl)c(Cl)c1)CCS2
> 128 mg/L	> 128 mg/L	4 mg/L (≈ 18.3 µM)	32 mg/L (≈ 147 µM)		4 mg/L (≈ 18.3 µM)	> 128 mg/L	16 mg/L (≈ 73.3 µM)	16 mg/L (≈ 73.3 µM)	32 mg/L (≈ 147 µM)	> 115 µM	> 115 µM	94.8 µM			16 mg/L (≈ 73.3 µM)	Oc1c2c(nn1-c1ccccc1)CCS2
> 128 mg/L	> 128 mg/L	16 mg/L (≈ 45.2 µM)	32 mg/L (≈ 90.3 µM)	> 128 mg/L	2 mg/L (≈ 5.65 µM)	> 128 mg/L	32 mg/L (≈ 90.3 µM)	32 mg/L (≈ 90.3 µM)	32 mg/L (≈ 90.3 µM)	> 70.6 µM	> 70.6 µM	> 70.6 µM				Oc1c2c(nn1-c1cc(C(F)(F)F)cc(C(F)(F)F)c1)CCS2
